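Compound exposure: 48 hours, 5 concentrations, 96-well plates. GI50 = concentration required for 50% inhibition of growth.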 Activity calls are given as the source filed them. Rule as the data show it: active = GI50 up to about 1.1 µM and inactive = higher.
Legend:
Assay in all cases: NCI-60 cell line screen, 48 h
HOP-62 = system: HOP-62
OVCAR-5 = system: OVCAR-5
SK-OV-3 = system: SK-OV-3
OVCAR-8 = system: OVCAR-8
CAKI-1 = system: CAKI-1
SK-MEL-28 = system: SK-MEL-28
ACHN = system: ACHN
CCRF-CEM = system: CCRF-CEM
SF-268 = system: SF-268
IGROV-1 = system: IGROV-1
TK-10 = system: TK-10
RPMI-8226 = system: RPMI-8226
U-251 = system: U-251
M14 = system: M14
HCT-15 = system: HCT-15
SF-295 = system: SF-295
RXF 393 = system: RXF 393
Malme-3M = system: Malme-3M

Structure (SMILES) | GI50 (HOP-62) | GI50 (OVCAR-5) | GI50 (SK-OV-3) | GI50 (OVCAR-8) | GI50 (CAKI-1) | GI50 (SK-MEL-28) | GI50 (ACHN) | GI50 (CCRF-CEM) | GI50 (SF-268) | GI50 (IGROV-1) | GI50 (TK-10) | GI50 (RPMI-8226) | GI50 (U-251) | GI50 (M14) | GI50 (HCT-15) [µM] | GI50 (SF-295) | GI50 (RXF 393) | GI50 (Malme-3M)
COc1c(Br)cc(Br)c(OC)c1-c1ccc[nH]1 | > 100 µM (inactive) | > 100 µM (inactive) | > 100 µM (inactive) | > 100 µM (inactive) | 13.3 µM (inactive) | > 100 µM (inactive) | > 100 µM (inactive) | 78.9 µM (inactive) | > 100 µM (inactive) | 53.6 µM (inactive) | 5.83 µM (inactive) | 80.4 µM (inactive) | > 100 µM (inactive) | 75.7 µM (inactive) | 55.8 | > 100 µM (inactive) | – | –
CCc1ccc(/C(C)=N/NC(N)=S)cc1 | > 100 µM (inactive) | 13.1 µM (inactive) | > 100 µM (inactive) | > 100 µM (inactive) | 70 µM (inactive) | > 100 µM (inactive) | – | – | > 100 µM (inactive) | > 100 µM (inactive) | > 100 µM (inactive) | > 100 µM (inactive) | > 100 µM (inactive) | > 100 µM (inactive) | – | > 100 µM (inactive) | 47.3 µM (inactive) | 25.8 µM (inactive)
O=C(N/C(=C\c1cccc([N+](=O)[O-])c1)c1nc2ccccc2[nH]1)c1ccccc1 | 42.8 µM (inactive) | 63.4 µM (inactive) | > 100 µM (inactive) | 30.3 µM (inactive) | 59.4 µM (inactive) | 18.3 µM (inactive) | 51.4 µM (inactive) | 34.4 µM (inactive) | 45.3 µM (inactive) | 91.4 µM (inactive) | – | 40.8 µM (inactive) | 44 µM (inactive) | 66.8 µM (inactive) | 26.1 | – | – | > 100 µM (inactive)
O=[N+]([O-])C1(CO)COC(CCc2ccccc2)OC1 (stereo not drawn) | > 100 µM (inactive) | > 100 µM (inactive) | > 100 µM (inactive) | > 100 µM (inactive) | – | > 100 µM (inactive) | > 100 µM (inactive) | > 100 µM (inactive) | – | > 100 µM (inactive) | > 100 µM (inactive) | – | > 100 µM (inactive) | > 100 µM (inactive) | > 100 | > 100 µM (inactive) | > 100 µM (inactive) | > 100 µM (inactive)
Nc1ncnc2c1ncn2CCOC(c1ccccc1)P(=O)(O)O (stereo not drawn) | – | > 100 µM (inactive) | > 100 µM (inactive) | > 100 µM (inactive) | > 100 µM (inactive) | > 100 µM (inactive) | > 100 µM (inactive) | > 100 µM (inactive) | > 100 µM (inactive) | > 100 µM (inactive) | > 100 µM (inactive) | – | > 100 µM (inactive) | – | > 100 | > 100 µM (inactive) | > 100 µM (inactive) | > 100 µM (inactive)
CC(CC(=O)N1C(=O)C(C)(C)[C@@H](O)[C@H]1CC(C)C(Cl)(Cl)Cl)C(Cl)(Cl)Cl (stereo partly drawn) | > 100 µM (inactive) | – | > 100 µM (inactive) | > 100 µM (inactive) | > 100 µM (inactive) | – | > 100 µM (inactive) | > 100 µM (inactive) | > 100 µM (inactive) | > 100 µM (inactive) | > 100 µM (inactive) | > 100 µM (inactive) | > 100 µM (inactive) | > 100 µM (inactive) | > 100 | > 100 µM (inactive) | – | > 100 µM (inactive)
Cc1ccc(C2=C(c3ccc(C)cc3)C(c3ccc(C)cc3)=C(c3ccc(C)cc3)C2=O)cc1 | > 100 µM (inactive) | > 100 µM (inactive) | > 100 µM (inactive) | > 100 µM (inactive) | – | > 100 µM (inactive) | > 100 µM (inactive) | > 100 µM (inactive) | > 100 µM (inactive) | > 100 µM (inactive) | > 100 µM (inactive) | > 100 µM (inactive) | > 100 µM (inactive) | > 100 µM (inactive) | > 100 | > 100 µM (inactive) | > 100 µM (inactive) | > 100 µM (inactive)
C[Si](C)(C)/C=C\CCO | – | > 100 µM (inactive) | > 100 µM (inactive) | > 100 µM (inactive) | – | > 100 µM (inactive) | > 100 µM (inactive) | > 100 µM (inactive) | > 100 µM (inactive) | > 100 µM (inactive) | > 100 µM (inactive) | > 100 µM (inactive) | > 100 µM (inactive) | > 100 µM (inactive) | > 100 | > 100 µM (inactive) | > 100 µM (inactive) | > 100 µM (inactive)
CC(C)(C)NC(=O)NC12CC3CC(CC(F)(C3)C1)C2 | > 100 µM (inactive) | > 100 µM (inactive) | > 100 µM (inactive) | > 100 µM (inactive) | – | > 100 µM (inactive) | > 100 µM (inactive) | > 100 µM (inactive) | – | > 100 µM (inactive) | > 100 µM (inactive) | > 100 µM (inactive) | > 100 µM (inactive) | > 100 µM (inactive) | – | – | > 100 µM (inactive) | > 100 µM (inactive)

Source: ChEMBL document CHEMBL1201862, “PubChem BioAssay data set” (2004)
